Measurements taken from US10076519B2 (CYTOKINETICS, INC., priority 2010, dated 2018).

Tested on: rabbit skeletal myofibrils (fast skeletal myofibrils)
Experiment: Activation of fast skeletal myofibrils (PUMA assay, PK/LDH-coupled ATPase at pCa25)
Assay type: biochemical
How it was run: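 Detergent-washed rabbit psoas myofibrils (~90% fast fibres, calcium-regulated) assayed at calcium giving 25% of maximal ATPase rate (pCa25). ADP turnover coupled via pyruvate kinase/lactate dehydrogenase to NADH oxidation, read at 340 nm. Buffer 12 mM PIPES, 2 mM MgCl2, 1 mM DTT, pH 6.8; AC1.4 values derived.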

[1] = median AC1.4 class, procedure of Example 39
[2] = median AC1.4 reported as class, procedure of Example 39
[3] = AC1.4 determined according to the procedure of Example 39, reported as class symbols

Row | Mean AC1.4 [1] | Structure (SMILES) | other results
1 | D (D=>20 uM) | CC(=O)c1ccc(NCC2(c3ncccc3F)CCC2)nn1 | 
2 | D (D=>20 uM) | NC(=O)c1cnn(Cc2ccc(NC3(c4ncccc4F)CCC3)nn2)c1 | 
3 | D (D=>20 uM) | CC(C)(O)C(N)c1ccc(-c2ccc(NCC3(c4ncccc4F)CCC3)nn2)cc1 (stereo not shown) | 
4 | D (D=>20 uM) | CC(C)(O)c1ncccc1-c1ccc(NCC2(c3ncccc3F)CCC2)nn1 | 
5 | D (D=>20 uM) | O=C(O)C1CN=C(c2ccc(NCC3(c4ncccc4F)CCC3)nn2)N1 (stereo not shown) | 
6 | D (D=>20 uM) | NC(=O)c1coc(-c2ccc(NCC3(c4ncccc4F)CCC3)nn2)n1 | 
7 | B (B=1-10 uM) | NC(=O)c1cnc(-c2ccc(NCC3(c4ncccc4F)CCC3)nn2)o1 | 
8 | D (D=>20 uM) | NC(=O)c1csc(-c2ccc(NCC3(c4ncccc4F)CCC3)nn2)n1 | 
9 | D (D=>20 uM) | NC(=O)C1CN=C(c2ccc(NCC3(c4ncccc4F)CCC3)nn2)N1 (stereo not shown) | 
10 | D (D=>20 uM) | CC(C)(O)c1ccc(NCC2(c3ncccc3F)CCC2)nn1 | 
11 | C (C=10-20 uM) | NC(=O)CNc1ncc(-c2ccc(NCC3(c4ncccc4F)CCC3)nn2)cn1 | 
12 | C (C=10-20 uM) | NC(=O)C(N)c1cccc(-c2ccc(NCC3(c4ncccc4F)CCC3)nn2)c1 (stereo not shown) | 
13 | D (D=>20 uM) | CC(C)(CO)Nc1ccc(-c2cccc(C(N)=O)c2)nn1 | 
14 | A (A=<1 uM) | NC(=O)c1cccc(-c2ccc(NC3(c4ccccc4F)CCC3)nn2)c1 | 
15 | A (A=<1 uM) | NC(=O)c1ccc(F)c(-c2ccc(NC3(c4ncccc4Cl)CCC3)nn2)c1 | 
16 | B (B=1-10 uM) | NC(=O)c1cccc(-c2ccc(NC3(c4ncccc4F)CCC3)nn2)c1 | 
17 | B (B=1-10 uM) | NC(=O)c1cccc(-c2ccc(NC3(c4cccc(F)c4)CCC3)nn2)c1 | 
18 | B (B=1-10 uM) | NC(=O)c1cccc(-c2ccc(NCC3(c4ncccc4F)CC(F)(F)C3)nn2)c1 | 
19 | B (B=1-10 uM) | NC(=O)c1cccc(-c2ccc(NC3(c4ccc(Cl)cc4)CCC3)nn2)c1 | 
20 | D (D=>20 uM) | N#Cc1ccc(C2(Nc3ccc(-c4cccc(C(N)=O)c4)nn3)CCC2)cc1 | 
21 | A (A=<1 uM) | NC(=O)c1cccc(-c2ccc(NC3(c4ccc(F)cc4)CCC3)nn2)c1 | 
22 | D (D=>20 uM) | COc1ccnc(C2(Nc3ccc(-c4cccc(C(N)=O)c4)nn3)CCC2)c1 | 
23 | B (B=1-10 uM) | NC(=O)c1cccc(-c2ccc(NC3(c4ccc(F)cn4)CCC3)nn2)c1 | 
24 | C (C=10-20 uM) | NC(=O)c1ncccc1-c1ccc(NCC2(c3ncccc3F)CCC2)nn1 | 
25 | C (C=10-20 uM) | N#Cc1ncccc1-c1ccc(NCC2(c3ncccc3F)CCC2)nn1 | 

Row | Mean AC1.4 [1] | Structure (SMILES) | other results
26 | B (B=1-10 uM) | NC(=O)c1cccc(-c2ccc(NC3(c4ccccc4)CCC3)nn2)c1 | 
27 | B (B=1-10 uM) | N#Cc1cc(-c2ccc(NC3(c4ccc(F)cc4)CCC3)nn2)ccn1 | 
28 | B (B=1-10 uM) | NC(=O)c1cc(-c2ccc(NC3(c4ccc(F)cc4)CCC3)nn2)ccn1 | 
29 | B (B=1-10 uM) | NC(=O)c1ccc(F)c(-c2ccc(NC3(c4ncccc4F)CCC3)nn2)c1 | 
30 | A (A=<1 uM) | NC(=O)c1ccc(F)c(-c2ccc(NC3(c4ccc(F)cc4)CCC3)nn2)c1 | 
31 | B (B=1-10 uM) | O=C1Cc2cc(-c3ccc(NCC4(c5ncccc5F)CCC4)nn3)ccc2N1 | 
32 | A (A=<1 uM) | O=c1[nH][nH]c2ccc(-c3ccc(NCC4(c5ncccc5F)CCC4)nn3)cc12 | 
33 | B (B=1-10 uM) | NC(=O)c1noc(-c2ccc(NCC3(c4ncccc4F)CCC3)nn2)n1 | 
34 | C (C=10-20 uM) | CC(C)n1[nH]c(=O)c2cc(-c3ccc(NCC4(c5ncccc5F)CCC4)nn3)ccc21 | 
35 | B (B=1-10 uM) | CC(C)n1[nH]c2ccc(-c3ccc(NCC4(c5ncccc5F)CCC4)nn3)cc2c1=O | 
36 | B (B=1-10 uM) | Cn1nc(C(N)=O)cc1-c1ccc(NCC2(c3ncccc3F)CCC2)nn1 | 
37 | A (A=<1 uM) | Oc1ccc(-c2ccc(NCC3(c4ncccc4F)CCC3)nn2)nc1 | 
38 | B (B=1-10 uM) | O=C1Cc2ccc(-c3ccc(NCC4(c5ncccc5F)CCC4)nn3)cc2N1 | 
39 |  | CC(C)(CNc1ccc(-c2cn3c(C(N)=O)csc3n2)nn1)c1ncccc1Cl | Mean AC1.4 [2]: A (A=<1 uM)
40 | A (A=<1 uM) | CNC(=O)Nc1cccc(-c2ccc(NCC3(c4ncccc4F)CCC3)nn2)c1 | 
41 | A (A=<1 uM) | CC(=O)Nc1ccc(-c2ccc(NCC3(c4ncccc4F)CCC3)nn2)cc1 | 
42 | A (A=<1 uM) | CNC(=O)Nc1ccc(-c2ccc(NCC3(c4ncccc4F)CCC3)nn2)cc1 | 
43 | C (C=10-20 uM) | CC(=O)Nc1ncc(-c2ccc(NCC3(c4ncccc4F)CCC3)nn2)cn1 | 
44 | D (D=>20 uM) | COC(=O)Nc1ncc(-c2ccc(NCC3(c4ncccc4F)CCC3)nn2)cn1 | 
45 | A (A=<1 uM) | CS(=O)(=O)Nc1cccc(-c2ccc(NC3(c4ccc(F)cc4)CCC3)nn2)c1 | 
46 | C (C=10-20 uM) | OCc1ncccc1-c1ccc(NCC2(c3ncccc3F)CCC2)nn1 | 
47 | B (B=1-10 uM) | CS(=O)(=O)Nc1ccc(-c2ccc(NC3(c4ccc(F)cc4)CCC3)nn2)cc1 | 
48 | D (D=>20 uM) | CS(=O)(=O)Nc1ncc(-c2ccc(NCC3(c4ncccc4F)CCC3)nn2)cn1 | 
49 | B (B=1-10 uM) | CC(C)(Nc1ccc(-c2ccc(N)nc2)nn1)c1ccccc1 | 
50 | D (D=>20 uM) | Fc1cccnc1C1(CNc2ccc(-c3ccc(NCC4(c5ncccc5F)CCC4)nn3)nn2)CCC1 | 

Row | Mean AC1.4 [1] | Structure (SMILES) | other results
51 | A (A=<1 uM) | NC(=O)Nc1ccc(-c2ccc(NCC3(c4ncccc4F)CC(F)(F)C3)nn2)cc1 | 
52 | A (A=<1 uM) | NC(=O)Nc1ccc(-c2ccc(NC3(c4ccc(F)cc4)CCC3)nn2)cc1 | 
53 | A (A=<1 uM) | NC(=O)Nc1ccc(-c2ccc(NCC3(c4ncccc4F)CCC3)nn2)cc1 | 
54 | B (B=1-10 uM) | NC(=O)Nc1ccc(-c2ccc(NCC3(c4ncccc4F)CCC3)nn2)cn1 | 
55 | D (D=>20 uM) | NC(=O)Nc1ncc(-c2ccc(NCC3(c4ncccc4F)CCC3)nn2)cn1 | 
56 | D (D=>20 uM) | CCOC(=O)c1ccc(NCC2(c3ncccc3F)CCC2)nn1 | 
57 | D (D=>20 uM) | COC(=O)c1coc(-c2ccc(NCC3(c4ncccc4F)CCC3)nn2)n1 | 
58 | D (D=>20 uM) | COC(=O)C1CN=C(c2ccc(NCC3(c4ncccc4F)CCC3)nn2)N1 (stereo not shown) | 
59 | C (C=10-20 uM) | COC(=O)c1ncccc1-c1ccc(NCC2(c3ncccc3F)CCC2)nn1 | 
60 | D (D=>20 uM) | CC(C)(C)OC(=O)N1CCN(c2ncc(-c3ccc(NCC4(c5ncccc5F)CCC4)nn3)cn2)CC1 | 
61 |  | CC(C)(CNc1ccc(C(=O)N[C@H]2CCC[C@H]2C(N)=O)nn1)c1ccc(F)cc1 (stereo in doubt) [(2S,1R)-2-[(6-{[2-(4-fluorophenyl)-2-methylpropyl]amino}pyridazin-3-yl)carbonylamino]cyclopentane-carboxamide] | Mean AC1.4 [3]: D (D=>20 uM)
62 | C (C=10-20 uM) | CC(O)(c1cnc(-c2ccc(NCC3(c4ncccc4F)CCC3)nn2)s1)C(F)(F)F (stereo not shown) [1,1,1-trifluoro-2-{2-[6-({[(3-fluoro(2-pyridyl))cyclobutyl]methyl}ami-no)pyridazin-3-yl](1,3-thiazol-5-yl)}propan-2-ol] | 
63 |  | CC(=O)c1ccc(NCC(C)(C)c2ccc(F)cc2)nn1 [1-(6-{[2-(4-fluorophenyl)-2-methylpropyl]amino}pyridazin-3-yl)ethan-1-one] | Mean AC1.4 [3]: D (D=>20 uM)
64 |  | CS(=O)(=O)N1CCN(Cc2cnc(-c3ccc(NCC4(c5ncccc5F)CCC4)nn3)s2)CC1 [1-({2-[6-({[(3-fluoro(2-pyridyl))cyclobutyl]methyl}ami-no)pyridazin-3-yl](1,3-thiazol-5-yl)}methyl)-4-(methylsulfonyl)piperazine] | Mean AC1.4 [2]: D (D=>20 uM)
65 | C (C=10-20 uM) | NC(=O)C1CCCN(C(=O)c2cnc(-c3ccc(NCC4(c5ncccc5F)CCC4)nn3)s2)C1 (stereo not shown) [1-({2-[6-({[(3-fluoro-2-pyridyl)cyclobutyl]methyl}ami-no)pyridazin-3-yl]-1,3-thiazol-5-yl}carbonyl)piperidine-3-carboxamide] | 
66 |  | NC(=O)c1cccc(-c2ccc(NCC3(C(=O)O)CCC3)nn2)c1 [1-({[6-(3-carbamoylphenyl)pyridazin-3-yl]amino}methyl)cyclobutane-carboxylic acid] | Mean AC1.4 [3]: D (D=>20 uM)
67 |  | N#Cc1cccc(-c2ccc(NCC3(C(=O)O)CCC3)nn2)c1 [1-({[6-(3-cyanophenyl)pyridazin-3-yl]amino}methyl)cyclobutane-carboxylic acid] | Mean AC1.4 [3]: D (D=>20 uM)
68 |  | CC(C)(CNc1ccc(-c2ccc3[nH]nc(C(O)CO)c3c2)nn1)c1ccc(F)cc1 (stereo not shown) [1-[5-(6-{[2-(4-fluorophenyl)-2-methylpropyl]amino}pyridazin-3-yl)-1H-indazol-3-yl]ethane-1,2-diol] | Mean AC1.4 [3]: B (B=1-10 uM)
69 |  | CC(C)(CNc1ccc(C(=O)N2CCC2C(N)=O)nn1)c1ccc(F)cc1 (stereo not shown) [1-[(6-{[2-(4-fluorophenyl)-2-methylpropyl]amino}pyridazin-3-yl)carbonyl]azetidine-2-carboxamide] | Mean AC1.4 [3]: D (D=>20 uM)
70 |  | CC(C)(CNc1ccc(C(=O)N2CCCCC2C(N)=O)nn1)c1ccc(F)cc1 (stereo not shown) [1-[(6-{[2-(4-fluorophenyl)-2-methylpropyl]amino}pyridazin-3-yl)carbonyl]piperidine-2-carboxamide] | Mean AC1.4 [3]: D (D=>20 uM)
71 |  | CC(C)(CNc1ccc(C(=O)N2CCCC(C(N)=O)C2)nn1)c1ccc(F)cc1 (stereo not shown) [1-[(6-{[2-(4-fluorophenyl)-2-methylpropyl]amino}pyridazin-3-yl)carbonyl]piperidine-3-carboxamide] | Mean AC1.4 [3]: D (D=>20 uM)
72 |  | CC(C)(CNc1ccc(C(=O)N2CCC(C(N)=O)CC2)nn1)c1ccc(F)cc1 [1-[(6-{[2-(4-fluorophenyl)-2-methylpropyl]amino}pyridazin-3-yl)carbonyl]piperidine-4-carboxamide] | Mean AC1.4 [3]: D (D=>20 uM)
73 |  | CC(C)(CNc1ccc(C(=O)N2CCCC2C(N)=O)nn1)c1ccc(F)cc1 (stereo not shown) [1-[(6-{[2-(4-fluorophenyl)-2-methylpropyl]amino}pyridazin-3-yl)carbonyl]pyrrolidine-2-carboxamide] | Mean AC1.4 [3]: D (D=>20 uM)
